Laboratory results reported in publication PMC10766854 (Frontiers in Pharmacology, 2023).
Each block holds one compound with its values, some of them ahead of it.

Experiments:
dipeptidyl dipeptidase-4 = conditions: endogenous GLP-1, easily degraded by dipeptidyl dipeptidase-4; ref Drucker, 2003; cited from earlier work
Description: GLP-1 is an endogenous incretin hormone secreted primarily by intestinal L-cells ([Drucker, 2006]; [Baggio and Drucker, 2007]; [Müller et al., 2019]), which is involved in the regulation of glucose homeostasis through GLP-1R, a G-protein-coupled receptor, in a variety of ways, mainly including stimulation of insulin secretion in a glucose-dependent manner, inhibition of glucagon secretion, reduction of appetite, slowing down of gastric emptying ([Drucker and Nauck, 2006]; [Hare et al., 2010]), enhancement of insulin sensitivity ([Fernández-Millán et al., 2016]; [Capuani et al., 2018]; [Jiang e ...

[1] = Pharmacokinetics and bioequivalence after a single subcutaneous injection, plasma liraglutide by LC-MS/MS; assay type: in vivo, human; conditions: single s.c. 0.6 mg, N = 36
Description: This trial was designed as a randomized, open, two-cycle, self-crossover trial. Screening was performed within 28 days prior to dosing, and eligible subjects were admitted to the Phase I Clinical Trial Ward in the afternoon of the first day prior to dosing and fasted for 10 h overnight after dinner. […] A total of 18 subjects received the test formulation in the first cycle, and the other 18 subjects received the reference formulation for administration and were crossover-administered for the second cycle of the study after a 14-day washout period. Drinking water was restricted for 1 h before and 1 h after dosing, water was drunk as needed at all other times, and a standardized nutritious meal was uniformly provided at least 4 h after dosing. The subjects were discharged from the hospital on the third day after dosing. Follow-up examinations were performed 72 h after the last dose of the second cycle.
After collection, the tubes were inverted six times, centrifuged at 4°C, 1,460 g for 10 min, and the plasma was aliquoted and placed it the numbered cryopreservation tube. Plasma samples were stored in a refrigerator at −80°C before analysis.
Waters ACQUITY UPLC (Waters Corporation, United States) and AB Triple Quad 6500+ Mass Spectrometer (SCIEX Technologies, United States) combined with an electrospray ionization source were used for LC-MS/MS analysis. […] The chromatographic separation was performed on a C18 column (Waters) at 60°C with a flow rate of 600 μL/min. The mobile phase A was 0.025% formic acid aqueous solution (v/v), and the mobile phase B was 0.025% formic acid acetonitrile aqueous solution (v/v). The linear range, limit of quantification, accuracy, precision, recovery, selectivity, and stability of the method were verified. […] In the concentration data listings, all missing data are indicated as “-” or NA (not applicable).
The pharmacokinetic parameters, including Tmax, Cmax, AUC0-t, AUC0-∞, t1/2z, AUC_%Extrap, Vz/F, and CLz/F, were calculated using the non-compartmental model of WinNonlin 7.0. Descriptive statistical analysis was performed on PK parameters, and the arithmetic mean, standard deviation, coefficient of variation, maximum, minimum, and geometric mean of each parameter were calculated. If AUC_%Extrap >20%, the subject’s AUC0-∞, t1/2z, Vz/F, and CLz/F were not to be used for descriptive statistical analysis.
Based on the blood concentration data, SAS 9.4 was used for statistical analysis. Cmax, AUC0-t, AUC0-∞, t1/2z, CLz/F, and Vz/F were logarithmically transformed and then analyzed using variance analysis (ANOVA). […] Two one-sided tests were performed for each parameter, and 90% CI of the geometric mean ratio (GMR) of the pharmacokinetic parameters (T/R) was calculated.

[2] = Safety and tolerability assessment (adverse events) in the crossover trial; assay type: in vivo, human; conditions: single s.c. 0.6 mg
Description: Subjects receiving the study drug were included in the safety assessment. The safety assessment included physical examination, vital signs (pre-dose and 1, 3, 12, 24, 48, and 72 h after administration of the study drug in the first and second cycles), laboratory tests, 12-lead electrocardiograms (pre-dose and 3, 24, 48, and 72 h after administration of the study drug in the first and second cycles), and blood glucose monitoring. Laboratory safety assessments were completed at the laboratory of Zhongshan Hospital, Fudan University, including routine blood, blood biochemistry, thyroid function, coagulation function, and urine routine tests. All adverse reactions were coded using MedDRA 21.0 terminology and categorized and analyzed according to SOC/PT.

[3] = Stability of analyte solutions and prepared samples, LC-MS/MS method validation; assay type: physicochemical; conditions: room temperature
Description: Plasma concentrations of liraglutide were analyzed using a validated, sensitive, and specific liquid chromatography–tandem mass spectrometry (LC-MS/MS) method developed by Shanghai WuXi AppTec New Drug Development Co. (Shanghai, China). Waters ACQUITY UPLC (Waters Corporation, United States) and AB Triple Quad 6500+ Mass Spectrometer (SCIEX Technologies, United States) combined with an electrospray ionization source were used for LC-MS/MS analysis. The internal standard of liraglutide was developed in-house. The chromatographic separation was performed on a C18 column (Waters) at 60°C with a flow rate of 600 μL/min. […] The linear range, limit of quantification, accuracy, precision, recovery, selectivity, and stability of the method were verified. The linear range of the analytical method for the determination of liraglutide in plasma was 1.00–250 ng/mL, and the lower limit of quantification (LLOQ) was 1.00 ng/mL. […] The analyte recoveries were determined using three gradients, high, medium, and low, with mean values of 48.0%, 47.6%, and 57.8%, respectively, corresponding to CVs of less than 8% and 57.3 for IS, corresponding to a CV of 5.1%. […] During analysis, plasma concentrations of liraglutide below the limit of quantification were listed as zero and missing values in PK samples before and after Tmax, respectively. […]

[4] = ref US Food and Drug Administration, 2017, cited from earlier work
Description: The lower dose on the steeper portion of the exposure–effect curve in healthy subjects was chosen to assess the difference between the subject drug and the reference drug ([CDER, 2014]), and therefore, 0.6 mg was selected as the dose to be administered in this comparative trial.

[5] = ref US Food and Drug Administration, 2017, cited from earlier work; remark: listed apart in the source
Description: In five double-blind clinical trials of 26 weeks or longer, the incidence of gastrointestinal adverse reactions in patients was reported to be 41% in the liraglutide treatment group and was dose-related ([US Food and Drug Administration, 2017]). This is consistent with the pharmacodynamic profile of GLP-1R agonist-related drugs. […] In five clinical trials of 26 weeks or longer ([US Food and Drug Administration, 2017]), approximately 50%–70% of Victoza-treated patients were tested for anti-liraglutide antibodies at the end of treatment. Approximately 8.6% of the liraglutide-treated group were detected with low-titer (no serum concentration dilution required) anti-liraglutide antibodies. When comparing all antibody-positive and all antibody-negative patients, antibody formation wa ...

[6] = healthy Chinese subjects, N = 36
[7] = single dose 0.6 mg subcutaneously

Compound: GLP-1: Endogenous incretin hormone secreted primarily by intestinal L-cells
Effective half-life (dipeptidyl dipeptidase-4): only a few minutes

Vd/F ([1]; human, in vivo, sc, healthy Chinese subjects, plasma LC-MS/MS, non-compartmental, mean ± SD (%CV), read-out: Vz/F (apparent volume of distribution)): 8.34 L
Geometric mean ratio (T/R) of Cmax ([1]; test liraglutide injection versus Victoza, equivalence interval 80.00%–125.00%, 90% CI 99.54–108.10): 103.73%
Geometric mean ratio (T/R) of AUC0-t ([1]; test liraglutide injection versus Victoza, equivalence interval 80.00%–125.00%, 90% CI 99.85–106.26): 103.01%
Geometric mean ratio (T/R) of AUC0-∞ ([1]; test liraglutide injection versus Victoza, equivalence interval 80.00%–125.00%, 90% CI 100.04–106.11): 103.03%
Short-term stability (ULOQ) of the working solution ([3]; aqueous mixture of formic acid and acetonitrile): 146.9 h
Stability of the biological samples after preparation ([3]; prepared plasma samples): 21.5 h
Compound: CCCCCCCCCCCCCCCC(=O)N[C@@H](CCC(=O)NCCCC[C@H](NC(=O)[C@H](C)NC(=O)[C@H](C)NC(=O)[C@H](CCC(N)=O)NC(=O)CNC(=O)[C@H](CCC(=O)O)NC(=O)[C@H](CC(C)C)NC(=O)[C@H](Cc1ccc(O)cc1)NC(=O)[C@H](CO)NC(=O)[C@H](CO)NC(=O)[C@@H](NC(=O)[C@H](CC(=O)O)NC(=O)[C@H](CO)NC(=O)[C@@H](NC(=O)[C@H](Cc1ccccc1)NC(=O)[C@@H](NC(=O)CNC(=O)[C@H](CCC(=O)O)NC(=O)[C@H](C)NC(=O)[C@@H](N)Cc1cnc[nH]1)[C@@H](C)O)[C@@H](C)O)C(C)C)C(=O)N[C@@H](CCC(=O)O)C(=O)N[C@@H](Cc1ccccc1)C(=O)N[C@H](C(=O)N[C@@H](C)C(=O)N[C@@H](Cc1c[nH]c2ccccc12)C(=O)N[C@@H](CC(C)C)C(=O)N[C@H](C(=O)N[C@@H](CCCNC(=N)N)C(=O)NCC(=O)N[C@@H](CCCNC(=N)N)C(=O)NCC(=O)O)C(C)C)[C@@H](C)CC)C(=O)O [Liraglutide, liraglutide]
Tolerability (in words) ([2]; healthy Chinese subjects): well tolerated
AEs leading to exit, Instance [2, 6]: 0
AEs of grade 1 and above, Instance [2, 6]: 0
Blurred right vision, Instance [2, 6]: 0
Elevated blood glucose, Instance [2, 6]: 0
Elevated free thyroxine, Instance [2, 6]: 1
Elevated hypersensitivity thyroid-stimulating hormone, Instance [2, 6]: 1
Hyperuricemia, Instance [2, 6]: 1
Increased alanine aminotransferase, Instance [2, 6]: 0
Increased urine leukocytes, Instance [2, 6]: 0
Leukocyte increase, Instance [2, 6]: 1
Serious AEs, Instance [2, 6]: 0
AEs leading to exit, Number of cases (n%) ([2]; proportion of subjects, N = 36): 0%
AEs of grade 1 and above, Number of cases (n%) ([2]; proportion of subjects, N = 36): 0%
Blurred right vision, Number of cases (n%) ([2]; proportion of subjects, N = 36): 0%
Elevated blood glucose, Number of cases (n%) ([2]; proportion of subjects, N = 36): 0%
Elevated free thyroxine, Number of cases (n%) ([2]; proportion of subjects, N = 36): 2.78%
Elevated hypersensitivity thyroid-stimulating hormone, Number of cases (n%) ([2]; proportion of subjects, N = 36): 2.78%
Hyperuricemia, Number of cases (n%) ([2]; proportion of subjects, N = 36): 2.78%
Increased alanine aminotransferase, Number of cases (n%) ([2]; proportion of subjects, N = 36): 0%
Increased urine leukocytes, Number of cases (n%) ([2]; proportion of subjects, N = 36): 0%
Leukocyte increase, Number of cases (n%) ([2]; proportion of subjects, N = 36): 2.78%
Serious AEs, Number of cases (n%) ([2]; proportion of subjects, N = 36): 0%
Total AEs, Number of cases (n%) ([2]; proportion of subjects, N = 36): 8.33%
Number of adverse reactions / AEs ([2]; 36 subjects per group): four
Number of possible related adverse reactions (times) ([2]; 36 subjects per group): three
Subjects with adverse reactions (proportion) ([2]; 36 subjects per group): 8.33%
Subjects with adverse reactions / AEs (number of subjects) ([2]; 36 subjects per group): Three
Subjects with possible related adverse reactions (number of subjects) ([2]; 36 subjects per group): two
Subjects with possible related adverse reactions (proportion) ([2]; 36 subjects per group): 5.56%
Mean apparent volume of distribution [4, 7]: approximately 13 L
Mean peak (Cmax) [4, 7]: 35 ng/mL
Time to maximum concentration after dosing [4, 7]: 8 to 12 h
Total exposure (AUC) [4, 7]: 960 ng·h/mL
Mean apparent clearance ([4]; single dose, subcutaneous administration): approximately 1.2 L/h
Proportion of treated group with low-titer anti-liraglutide antibodies ([5]; five clinical trials of 26 weeks or longer, end of treatment): Approximately 8.6%
Incidence of gastrointestinal adverse reactions ([5]; patients, five double-blind clinical trials of 26 weeks or longer, dose-related): 41%
